Our source for the melting point values is a melting point compilation (Tetko et al.; mined from patent text by program, amines drawn as free bases though some values may be those of a salt).

Some results are limits rather than exact numbers.

Compound `Cn1c(=O)n(Cc2ccc(C#N)cc2)c(=O)c2nc(-c3ccc(/C=C/C(=O)O)cc3)[nH]c21` gave a melting point of more than 300 °C.
Then `FC(F)(F)c1cccc(-n2cnnc2Oc2ccccc2)c1`, with 83 to 85 °C; and `O=C(Nc1ccc(OCCN2CCOCC2)c2ccccc12)c1cc(F)cc(N2CCCCC2)c1`, with 150 to 151 °C.
Then `CN1C(=O)N(CC(=O)O)C(=O)C1(C)C`, with 130 to 132 °C.
`CCOC(=O)C1=Cc2cc(C)ccc2SC1C(F)(F)F` (configuration not stated) came in with a melting point of 93.1 to 94.7 °C.
`Cn1cnc(COc2nc3c(cc2-c2ccsc2)nnn3-c2ccccc2F)n1`: the melting point is 174 to 176 °C.
The figure for `CC(C)(C)OC(=O)CN1CC(c2cccs2)SCC(N2C(=O)c3ccccc3C2=O)C1=O` (configuration not stated) is 151 to 152 °C; for `Cc1cc(N2C(=O)N(CCCCCCCCCSCCCC(F)(F)C(F)(F)F)C(C)(C)C2=O)ccc1NS(=O)(=O)NC(=O)OC(C)(C)C` it is 122 to 124 °C.
For `O=C1c2ccc(Cl)cc2C(=O)N1C1CCN(CCc2c[nH]c3ccccc23)CC1`, the melting point lay within 188 to 190 °C.
Then `Cc1c(SCc2ccc(C(C)(C)C)cc2)cnn(C(C)(C)C)c1=O`, with 91 to 92 °C; and `c1ccc(CSc2nccn2-c2ccccn2)cc1`, with 76 to 77 °C.
The figure for `CCn1c(-c2ccc(OC)c(OC)c2)cc(=S)n(C)c1=O` is 147 to 150 °C; for `NC(=O)C1CN1C(=O)Oc1ccccc1` (configuration not stated) it is 140 to 142 °C.
On to `N#Cc1cc(Oc2ccc3c(C(=O)Nc4cccc(C(F)(F)F)c4)cccc3c2)ncn1`, for which the melting point worked out at 167 °C.
The figure for `COc1ccccc1Oc1c(NS(=O)(=O)c2ccc(C(C)(C)C)cc2)nc(NCCN(C)C)nc1OCCOC1CCCCO1` (configuration not stated) is 82 to 86 °C.
The figure for `CCn1nc(-c2nc(C(=O)O)c(NCc3ccc(OC)cc3)nc2-c2ccccc2)ccc1=O` is more than 250 °C; for `CCS(=O)c1ccc(-c2coc3ccc(-c4nnc(C)o4)cc23)cc1F` (configuration not stated) it is 187 to 188 °C.
Then `O=C1CC(c2cccc(-n3ccnc3)c2)=Nc2ccc(C#Cc3ccc(F)cc3)cc2N1`, with 216 to 218 °C; and `CN(C)C(=O)Nc1ccc(S(=O)(=O)CCc2ccccc2)c(Cl)c1`, with 136 to 138 °C.
Take `O=C(c1cccs1)c1cnn2c(-c3cccc(-c4nnnn4CC4CCC4)c3)ccnc12`: the melting point stood at 204 °C.
The figure for `CCCCNS(=O)(=O)CC(O)C(O)C(CC1CCCCC1)NC(=O)c1ccnnc1` (configuration not stated) is 170 to 172 °C.
The figure for `C[C@@H]1c2ccccc2-c2ccc(F)cc2N1C(=O)c1ccc(O)cc1O` is 182 to 184 °C; for `COc1ccnc(CSc2nc3cc4c(cc3[nH]2)OC(F)(F)O4)c1` it is 151 to 152 °C.
The figure for `Cc1cc(S(=O)(=O)N2c3ccccc3-c3ccccc3C2C)ccc1O` (configuration not stated) is 186 to 188 °C; for `COc1ccc(-c2nc(N)ncc2-c2ccc(=O)[nH]n2)cc1` it is 142 °C; for `CCCC(c1ccncc1)n1ccc2ccccc21` (configuration not stated) it is 91 to 94 °C.
Regarding `N#Cc1ccc(S(=O)(=O)N2CCN(C(=O)C3CCN(c4ccncn4)CC3)CC2)cc1`, the melting point lay within 180 to 181 °C.
Then `O=C(O)CCC(Cc1ccc(Cl)cc1Cl)(C(=O)C=Cc1ccc(Cl)cc1)c1ccccc1` (configuration not stated), with 215 to 226 °C; and `OC1(c2cncc(Br)c2)CCCC1`, with 74 °C.
Then `CN(CC(=O)OC(C)(C)C)c1cncc(-c2nc(=O)c3ccccc3s2)n1`, with 189 to 190 °C; and `CC(C)C(OCc1ccc(Cl)cc1)c1cncnc1` (configuration not stated), with 33 to 35 °C; and `NNC(=O)[C@@H]1C[C@]2(NC(=O)NC2=O)c2cc(F)ccc2O1`, with 277 to 278 °C.
The figure for `O=C(O)c1ccc(-c2nn(Cc3ccccc3)c3ccccc23)o1` is 200 to 202 °C; for `C=CCOc1ccccc1NC=C1C(=O)N(c2ccc(C(=O)O)cc2)N=C1C` it is 240 °C.
Consider `CCOC(=O)c1cc2c(nc1C)C(=Cc1ccc(OC(C)=O)cc1)CCC2`, for which the melting point came to 112 °C.
Then `COc1ccc(CCNC(=O)N(C)O)cc1OCc1ccccc1`, with 125 to 126 °C; and `COc1cc(OC(C)(C)C(=O)O)c(/C=C/C(=O)c2ccc(S(N)(=O)=O)cc2)cc1-c1cccs1`, with 164 to 165 °C; and `CCOC(=O)C1=C(C)NC(C)=C(C(=O)OCC)C1c1cccc(Cl)c1`, with 142 to 144 °C.
Then `O=C(NCC1(c2nc(C3CC3)cs2)CC1)c1ccccc1C(F)(F)F`, with 83.4 to 84.2 °C; and `O=[N+]([O-])c1ccc(Cc2nnco2)cc1`, with 104 to 105 °C.
The figure for `CCCNC(=O)n1nc(Oc2c(Cl)cc(C(F)(F)F)cc2Cl)cc1C(Cl)(Cl)Cl` is 89 to 91 °C.
With `COc1ccc2c(c1)c(Cc1cc(=O)n(-c3ccc(C)nn3)[nH]1)c(C)n2C(=O)c1ccc(Cl)cc1`, the melting point was 122 to 124 °C.
`COc1ccc(C(N)CCO)cc1OC` (configuration not stated) yielded a melting point of 63.5 to 65.5 °C.
Consider `CCCCSc1cc(C(=O)O)cc(S(N)(=O)=O)c1Sc1ccccc1`, for which the melting point lay in the range of 192 to 193 °C.
Then `CC1=C(C#N)S(=O)c2ccc(C(F)(F)F)cc2N1` (configuration not stated), with 290 to 292 °C; and `CN1C(=O)CC[C@]2(C)c3ccc(-c4ccc(C(F)(F)F)cc4F)cc3CC[C@@H]12`, with 72 to 79 °C; and `Cc1sc(-c2ccccc2)nc1COc1cc(COc2ncccc2CC#N)on1`, with 103 to 104 °C.
Then `O=C(O)c1ccc(OCCCCCCc2ccc3cc(O)c(O)cc3c2)cc1O`, with 190 to 192 °C.
Then `COC(=O)C(=Cc1ccc(OC)c(OCCc2ccccc2)c1)C(=O)OC`, with 105 to 106 °C; and `Oc1cnccc1CCCOc1cccnc1Oc1cccc(F)c1`, with 68 to 70 °C; and `CN1c2ccccc2NC(=S)c2cscc21`, with 203 to 204 °C.
Compound `COc1cc(O[C@@H](C)C(=O)O)c(Cl)cc1Cl` displayed a melting point of 114 to 115 °C.
The figure for `COC(=O)[C@H](O)CCCc1ccc(OCc2nc(-c3ccco3)oc2C)c(OC)c1` is 80 to 81 °C; for `Cc1ccc(-c2ccnc3c(C(=O)c4cccs4)cnn23)cc1NC(=O)CC(C)C` it is 185 to 187 °C; for `Cc1cc(C)c(C(=O)P(=O)(Oc2ccccc2C(C)(C)C)c2ccccc2)c(C)c1` (configuration not stated) it is 76 to 79 °C.
Consider `O=C(Nn1ccc2ccccc21)C1=CCCN(CCN2CCCCC2)C1`, for which the melting point was 65 °C.
Then `COc1ccc(-c2nc3cnccc3[nH]2)cc1S(C)=O` (configuration not stated), with 227 to 229 °C.
The compound `CCN1C(=O)C(C(=O)Nc2ccc(Cl)cc2Oc2ccc(Cl)cc2)C(=O)N(C)C1=S` (configuration not stated) returned a melting point of 250 to 251 °C.
Then `COc1ccc(CC(C)(N)C(=O)O)cc1` (configuration not stated), with 243 to 244 °C.
Then `CC(C)(C)c1cc(CCc2ccccc2NC(=O)NCC(c2ccccc2)c2ccccc2)cc(C(C)(C)C)c1O`, with 179 °C; and `ClC[Si](c1ccccc1)(c1ccccc1)c1ccccc1`, with 112 to 115 °C.
Then `Nc1cc(N2CC(c3ccccc3)OC2=O)ccn1` (configuration not stated), with 155 to 156 °C.
